*1 amine or outer side, *2 acyl side, *3 side chain or, on linkers, in order; H or OH if unused. Where a SMILES comes first, the peptide text is derived from it. Bridges are numbered along the chain shown (N, C = ends). [ ]: non-standard residue; d: D form. The star is where a group is joined. TBMB(SCH2CH2NH-DOTA) = O=C(O)CN1CCN(CC(=O)O)CCN(CC(=O)NCCSCc2cc(C[*:1])cc(C[*:2])c2)CCN(CC(=O)O)CC1; X5 = NC(=O)[C@H](CCCCNC(=O)CN1CCN(CC(=O)O)CCN(CC(=O)O)CCN(CC(=O)O)CC1)NC(=O)CCC(=O)NCCCOCCOCCOCCCN*; X19 = O=C(O)CN1CCN(CC(=O)O)CCN(CC(=O)N2CCN(Cc3cc(C[*:1])cc(C[*:2])c3)CC2)CCN(CC(=O)O)CC1; X3 = O=C(O)CN1CCN(CC(=O)O)CCN(CC(=O)NCCCOCCOCCOCCCN*)CCN(CC(=O)O)CC1; DOTA = O=C(O)CN1CCN(CC(=O)O)CCN(CC(=O)*)CCN(CC(=O)O)CC1; Propanoyl(3-(1-naphthyl)) = O=C(CCc1cccc2ccccc12)*; Trp(5-Cl) = N[C@@H](Cc1c[nH]c2ccc(Cl)cc12)C(=O)O; Trp(6-Cl) = N[C@@H](Cc1c[nH]c2cc(Cl)ccc12)C(=O)O; Trp(6-F) = N[C@@H](Cc1c[nH]c2cc(F)ccc12)C(=O)O; Propanoyl(3-(4-Cl-Ph)) = O=C(CCc1ccc(Cl)cc1)*; NMeW = CN[C@@H](Cc1c[nH]c2ccccc12)C(=O)O; mXylylene = c1cc(C[*:1])cc(C[*:2])c1; X6 = c1cc(CSCCN[*:2])nc(C[*:1])c1; X7 = c1cc(CSCCN[*:2])cc(C[*:1])c1; Hyp = O=C(O)[C@@H]1C[C@@H](O)CN1; X1 = O=C(CN1CCC(N[*:1])CC1)[*:2]; NMeL = CN[C@@H](CC(C)C)C(=O)O; Suc = O=C(CCC(=O)[*:2])[*:1]; X28 = O=C(CCc1ccc2ccccc2c1)*; Thp = NC1(C(=O)O)CCOCC1; Aib = CC(C)(N)C(=O)O
The molecules below were run against T1, GIPR (CHO-K1-hGIPR cells) (Homo sapiens, UniProt P48546) (assay: FACS binding assay). Conditions: competition with 20 nM GIP-057, 4° C. for 1 hour, read-out: pIC50 Category (converted).
T1 construct: host or cells: CHO-K1
T1 sequence (P48546 22-466): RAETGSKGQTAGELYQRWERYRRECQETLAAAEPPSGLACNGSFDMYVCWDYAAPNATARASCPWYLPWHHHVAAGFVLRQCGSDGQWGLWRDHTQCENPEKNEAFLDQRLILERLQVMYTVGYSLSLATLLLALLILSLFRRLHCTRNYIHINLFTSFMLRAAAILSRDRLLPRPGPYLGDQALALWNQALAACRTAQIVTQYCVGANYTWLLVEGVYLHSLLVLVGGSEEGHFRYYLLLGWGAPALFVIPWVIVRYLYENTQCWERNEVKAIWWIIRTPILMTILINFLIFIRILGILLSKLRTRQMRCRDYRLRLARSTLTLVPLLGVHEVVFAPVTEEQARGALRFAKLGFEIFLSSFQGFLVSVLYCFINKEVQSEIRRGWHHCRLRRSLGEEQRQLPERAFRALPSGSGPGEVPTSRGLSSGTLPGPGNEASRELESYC
Method in brief: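 Peptide binding read by flow cytometry as APC-channel median fluorescence, fitted with a four-parameter logistic to yield EC50 or IC50. Cells were hGIPR-transfected CHO-K1 in PBS with 1% FCS, detected with 1 μg/mL APC-streptavidin, 30 min on ice.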

| Compound | IC50 |
| --- | --- |
| CC[C@H](C)[C@@H]1NC(=O)[C@H](CC(C)C)NC(=O)C(C)(C)NC(=O)[C@@H](NC(=O)[C@@H](CC(C)C)NC(=O)[C@H](CCC(=O)O)NC(=O)[C@@H]2CCCN2C(=O)[C@H](Cc2c[nH]c3ccccc23)NC(=O)[C@H](Cc2c[nH]c3cc(F)ccc23)NC(=O)[C@H](CC(=O)O)NC(=O)CCC(=O)NCCCOCCOCCOCCCNC(=O)CN2CCN(CC(=O)O)CCN(CC(=O)O)CCN(CC(=O)O)CC2)CSCc2cccc(c2)CSCCNC1=O [GIP-283, DOTA-Ttds-Asp-6Fw-Trp-Pro-Glu-leu-[Cys(3MeBn)-Aib-Leu-Ile-AET]] ({X3-Suc}-D[Trp(6-F)]WPE[dL]C[Aib]LI; linker 7-C via X7) | 100 to 794 nM |
| CC[C@H](C)[C@@H]1NC(=O)[C@H](CC(C)C)NC(=O)C2(CCOCC2)NC(=O)[C@@H](NC(=O)[C@@H](CC(C)C)NC(=O)[C@H](CCC(=O)O)NC(=O)[C@@H]2C[C@@H](O)CN2C(=O)[C@H](Cc2c[nH]c3ccc(Cl)cc23)NC(=O)CNC(=O)[C@H](CC(=O)O)NC(=O)CN2CCC(NC(=O)CN3CCN(CC(=O)O)CCN(CC(=O)O)CCN(CC(=O)O)CC3)CC2)CSCc2cccc(n2)CSCCNC1=O [GIP-284, DOTA-APAc-Asp-Gly-5Clw-Hyp-Glu-leu-[Cys(2Lut)-Thp-Leu-Ile-AET]] ({DOTA}-[X1]DG[Trp(5-Cl)][Hyp]E[dL]C[Thp]LI; linker 8-C via X6) | 100 to 794 nM |
| CC[C@H](C)[C@@H]1NC(=O)[C@H](CC(C)C)NC(=O)[C@@H](C)NC(=O)[C@@H](NC(=O)[C@@H](CC(C)C)NC(=O)[C@H](CCC(=O)O)NC(=O)[C@@H]2CCCN2C(=O)[C@H](Cc2c[nH]c3ccccc23)NC(=O)[C@H](Cc2c[nH]c3ccccc23)NC(=O)[C@H](CC(=O)O)NC(=O)CCC(=O)NCCCOCCOCCOCCCNC(=O)CN2CCN(CC(=O)O)CCN(CC(=O)O)CCN(CC(=O)O)CC2)CSCc2cccc(c2)CSC[C@@H](C(=O)O)NC1=O [GIP-285, DOTA-Ttds-Asp-Trp-Trp-Pro-Glu-leu-[Cys(3MeBn)-ala-Leu-Ile-Cys]-OH] ({X3-Suc}-DWWPE[dL]C[dA]LIC-OH; linker 7-11 via mXylylene) | > 1000 nM |
| CC[C@H](C)[C@@H]1NC(=O)[C@H](CC(C)C)NC(=O)[C@@H](C)NC(=O)[C@@H](NC(=O)[C@@H](CC(C)C)NC(=O)[C@H](CCC(=O)O)NC(=O)[C@@H]2CCCN2C(=O)[C@H](Cc2c[nH]c3ccccc23)NC(=O)[C@H](Cc2c[nH]c3ccccc23)NC(=O)CCC(=O)O)CSCc2cc(cc(CN3CCN(C(=O)CN4CCN(CC(=O)O)CCN(CC(=O)O)CCN(CC(=O)O)CC4)CC3)c2)CSC[C@@H](C(N)=O)NC1=O [GIP-286, HO-Succinyl-Trp-Trp-Pro-Glu-leu-[Cys(tMeBn(DOTA-PP))-ala-Leu-Ile-Cys]-NH2] (Suc-WWPE[dL]C[dA]LIC-NH2; linker 6-10 via X19) | > 1000 nM |
| CC[C@H](C)[C@@H]1NC(=O)[C@H](CC(C)C)NC(=O)[C@@H](C)NC(=O)[C@@H](NC(=O)[C@@H](CC(C)C)NC(=O)[C@H](CCC(=O)O)NC(=O)[C@@H]2CCCN2C(=O)[C@H](Cc2c[nH]c3ccccc23)NC(=O)[C@H](Cc2c[nH]c3ccccc23)NC(=O)CCC(=O)O)CSCc2cc(CSCCNC(=O)CN3CCN(CC(=O)O)CCN(CC(=O)O)CCN(CC(=O)O)CC3)cc(c2)CSC[C@@H](C(N)=O)NC1=O [GIP-287, HO-Succinyl-Trp-Trp-Pro-Glu-leu-[Cys(tMeBn(DOTA-AET))-ala-Leu-Ile-Cys]-NH2] (Suc-WWPE[dL]C[dA]LIC-NH2; linker 6-10 via TBMB(SCH2CH2NH-DOTA)) | > 1000 nM |

Now from value to molecule:

| IC50 | Compound |
| --- | --- |
| 100 to 794 nM | CC[C@H](C)[C@@H]1NC(=O)[C@H](CC(C)C)NC(=O)C(C)(C)NC(=O)[C@@H](NC(=O)[C@@H](CC(C)C)NC(=O)[C@H](CCC(=O)O)NC(=O)[C@@H]2CCCN2C(=O)[C@H](Cc2c[nH]c3ccccc23)NC(=O)[C@H](Cc2c[nH]c3ccccc23)NC(=O)[C@H](CC(=O)O)NC(=O)CCc2ccc(Cl)cc2)CSCc2cccc(c2)CSC[C@@H](C(=O)NCCCOCCOCCOCCCNC(=O)CCC(=O)N[C@@H](CCCCNC(=O)CN2CCN(CC(=O)O)CCN(CC(=O)O)CCN(CC(=O)O)CC2)C(N)=O)NC1=O [GIP-279, 4ClPhp-Asp-Trp-Trp-Pro-Glu-leu-[Cys(3MeBn)-Aib-Leu-Ile-Cys]-Ttds-Lys(DOTA)-NH2] ({Propanoyl(3-(4-Cl-Ph))}-DWWPE[dL]C[Aib]LIC-X5; linker 7-11 via mXylylene) |
| 100 to 794 nM | CC[C@H](C)[C@@H]1NC(=O)[C@H](CC(C)C)NC(=O)C(C)(C)NC(=O)[C@@H](NC(=O)[C@@H](CC(C)C)NC(=O)[C@H](CCC(=O)O)NC(=O)[C@@H]2CCCN2C(=O)[C@H](Cc2c[nH]c3ccccc23)NC(=O)[C@H](Cc2c[nH]c3ccccc23)NC(=O)[C@H](CC(=O)O)NC(=O)CCc2cccc3ccccc23)CSCc2cccc(c2)CSC[C@@H](C(=O)NCCCOCCOCCOCCCNC(=O)CCC(=O)N[C@@H](CCCCNC(=O)CN2CCN(CC(=O)O)CCN(CC(=O)O)CCN(CC(=O)O)CC2)C(N)=O)NC1=O [GIP-280, Nph1p-Asp-Trp-Trp-Pro-Glu-leu-[Cys(3MeBn)-Aib-Leu-Ile-Cys]-Ttds-Lys(DOTA)-NH2] ({Propanoyl(3-(1-naphthyl))}-DWWPE[dL]C[Aib]LIC-X5; linker 7-11 via mXylylene) |
| 100 to 794 nM | CC[C@H](C)[C@@H]1NC(=O)[C@H](CC(C)C)NC(=O)C(C)(C)NC(=O)[C@@H](NC(=O)[C@@H](CC(C)C)NC(=O)[C@H](CCC(=O)O)NC(=O)[C@@H]2CCCN2C(=O)[C@H](Cc2c[nH]c3ccccc23)NC(=O)[C@H](Cc2c[nH]c3ccccc23)NC(=O)[C@H](CC(=O)O)NC(=O)CCc2ccc3ccccc3c2)CSCc2cccc(c2)CSC[C@@H](C(=O)NCCCOCCOCCOCCCNC(=O)CCC(=O)N[C@@H](CCCCNC(=O)CN2CCN(CC(=O)O)CCN(CC(=O)O)CCN(CC(=O)O)CC2)C(N)=O)NC1=O [GIP-281, Nph2p-Asp-Trp-Trp-Pro-Glu-leu-[Cys(3MeBn)-Aib-Leu-Ile-Cys]-Ttds-Lys(DOTA)-NH2] (X28-DWWPE[dL]C[Aib]LIC-X5; linker 7-11 via mXylylene) |
| 100 to 794 nM | CC[C@H](C)[C@@H]1NC(=O)[C@H](CC(C)C)NC(=O)C(C)(C)NC(=O)[C@@H](NC(=O)[C@@H](CC(C)C)NC(=O)[C@H](CCC(=O)O)NC(=O)[C@@H]2CCCN2C(=O)[C@H](Cc2c[nH]c3cc(Cl)ccc23)NC(=O)[C@H](Cc2c[nH]c3ccccc23)NC(=O)[C@H](CC(=O)O)NC(C)=O)CSCc2cccc(c2)CSC[C@@H](C(=O)NCCCOCCOCCOCCCNC(=O)CCC(=O)N[C@@H](CCCCNC(=O)CN2CCN(CC(=O)O)CCN(CC(=O)O)CCN(CC(=O)O)CC2)C(N)=O)NC1=O [GIP-282, Ac-Asp-Trp-6Clw-Pro-Glu-leu-[Cys(3MeBn)-Aib-Leu-Ile-Cys]-Ttds-Lys(DOTA)-NH2] (Ac-DW[Trp(6-Cl)]PE[dL]C[Aib]LIC-X5; linker 7-11 via mXylylene) |
| > 1000 nM | CC[C@H](C)[C@@H]1NC(=O)[C@H](CC(C)C)NC(=O)[C@@H](C)NC(=O)[C@@H](NC(=O)[C@@H](CC(C)C)NC(=O)[C@H](CCC(=O)O)NC(=O)[C@@H]2CCCN2C(=O)[C@H](Cc2c[nH]c3ccccc23)NC(=O)[C@H](Cc2c[nH]c3ccccc23)NC(=O)CCC(=O)O)CSCc2cccc(c2)CSC[C@@H](C(=O)NCCCOCCOCCOCCCNC(=O)CCC(=O)N[C@@H](CCCCNC(=O)CN2CCN(CC(=O)O)CCN(CC(=O)O)CCN(CC(=O)O)CC2)C(N)=O)NC1=O [GIP-288, HO-Succinyl-Trp-Trp-Pro-Glu-leu-[Cys(3MeBn)-ala-Leu-Ile-Cys]-Ttds-Lys(DOTA)-NH2] (Suc-WWPE[dL]C[dA]LIC-X5; linker 6-10 via mXylylene) |
| > 1000 nM | CC[C@H](C)[C@@H]1NC(=O)[C@H](CC(C)C)NC(=O)C(C)(C)NC(=O)[C@@H](NC(=O)[C@H](CC(C)C)NC(=O)[C@H](CCC(=O)O)NC(=O)[C@@H]2CCCN2C(=O)[C@H](Cc2c[nH]c3ccccc23)N(C)C(=O)[C@H](Cc2c[nH]c3ccccc23)NC(=O)[C@H](CC(=O)O)NC(C)=O)CSCc2cccc(c2)CSC[C@@H](C(=O)NCCCOCCOCCOCCCNC(=O)CCC(=O)N[C@@H](CCCCNC(=O)CN2CCN(CC(=O)O)CCN(CC(=O)O)CCN(CC(=O)O)CC2)C(N)=O)NC1=O [GIP-289, Ac-Asp-Trp-Nmw-Pro-Glu-Leu-[Cys(3MeBn)-Aib-Leu-Ile-Cys]-Ttds-Lys(DOTA)-NH2] (Ac-DW[NMeW]PELC[Aib]LIC-X5; linker 7-11 via mXylylene) |
| > 1000 nM | CC[C@H](C)[C@@H]1NC(=O)[C@H](CC(C)C)NC(=O)C(C)(C)NC(=O)[C@@H](NC(=O)[C@H](CC(C)C)N(C)C(=O)[C@H](CCC(=O)O)NC(=O)[C@@H]2CCCN2C(=O)[C@H](Cc2c[nH]c3ccccc23)NC(=O)[C@H](Cc2c[nH]c3ccccc23)NC(=O)[C@H](CC(=O)O)NC(C)=O)CSCc2cccc(c2)CSC[C@@H](C(=O)NCCCOCCOCCOCCCNC(=O)CCC(=O)N[C@@H](CCCCNC(=O)CN2CCN(CC(=O)O)CCN(CC(=O)O)CCN(CC(=O)O)CC2)C(N)=O)NC1=O [GIP-290, Ac-Asp-Trp-Trp-Pro-Glu-Nml-[Cys(3MeBn)-Aib-Leu-Ile-Cys]-Ttds-Lys(DOTA)-NH2] (Ac-DWWPE[NMeL]C[Aib]LIC-X5; linker 7-11 via mXylylene) |

— US20250296971A1, “GASTRIC INHIBITORY PEPTIDE RECEPTOR LIGANDS” (priority 2021, published 2025)
